# Reference: article PMC7915588, “Polyphyllin D Shows Anticancer Effect through a Selective Inhibition of Src Homology Region 2-Containing Protein Tyrosine Phosphatase-2 (SHP2)” (Molecules, 2021)
# Tests used:
# Assay in all cases: biochemical
# Parameters in all cases: Fluorogenic phosphatase assay, DiFMUP hydrolysis by recombinant PTPs, initial velocity, Ex/Em 355/460 nm
# Settings in all cases: read-out: Inhibition by 20 µM polyphyllin D (%)
# PTPN7 (HePTP) = biological target: T1, PTPN7 (HePTP) (Homo sapiens, UniProt P35236)
# T1 construct: 1-360
# T1 sequence (P35236 1-360): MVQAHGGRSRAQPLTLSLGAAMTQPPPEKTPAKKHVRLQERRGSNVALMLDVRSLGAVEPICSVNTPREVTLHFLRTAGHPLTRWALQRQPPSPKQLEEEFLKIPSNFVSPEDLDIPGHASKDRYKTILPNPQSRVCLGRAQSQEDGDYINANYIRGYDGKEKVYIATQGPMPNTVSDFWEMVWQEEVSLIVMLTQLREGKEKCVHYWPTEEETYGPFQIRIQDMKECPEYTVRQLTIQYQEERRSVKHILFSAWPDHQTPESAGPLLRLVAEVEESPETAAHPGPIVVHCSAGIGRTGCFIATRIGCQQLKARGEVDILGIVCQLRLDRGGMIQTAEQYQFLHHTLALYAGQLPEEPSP
# PTPN13 (PTP-BAS) = biological target: T2, PTPN13 (PTP-BAS) (Homo sapiens, UniProt Q12923)
# T2 construct: 2095-2490
# PTPN3 (PTPH1) = biological target: T3, PTPN3 (PTPH1) (Homo sapiens, UniProt P26045)
# T3 construct: 403-913
# T3 sequence (P26045 1-913): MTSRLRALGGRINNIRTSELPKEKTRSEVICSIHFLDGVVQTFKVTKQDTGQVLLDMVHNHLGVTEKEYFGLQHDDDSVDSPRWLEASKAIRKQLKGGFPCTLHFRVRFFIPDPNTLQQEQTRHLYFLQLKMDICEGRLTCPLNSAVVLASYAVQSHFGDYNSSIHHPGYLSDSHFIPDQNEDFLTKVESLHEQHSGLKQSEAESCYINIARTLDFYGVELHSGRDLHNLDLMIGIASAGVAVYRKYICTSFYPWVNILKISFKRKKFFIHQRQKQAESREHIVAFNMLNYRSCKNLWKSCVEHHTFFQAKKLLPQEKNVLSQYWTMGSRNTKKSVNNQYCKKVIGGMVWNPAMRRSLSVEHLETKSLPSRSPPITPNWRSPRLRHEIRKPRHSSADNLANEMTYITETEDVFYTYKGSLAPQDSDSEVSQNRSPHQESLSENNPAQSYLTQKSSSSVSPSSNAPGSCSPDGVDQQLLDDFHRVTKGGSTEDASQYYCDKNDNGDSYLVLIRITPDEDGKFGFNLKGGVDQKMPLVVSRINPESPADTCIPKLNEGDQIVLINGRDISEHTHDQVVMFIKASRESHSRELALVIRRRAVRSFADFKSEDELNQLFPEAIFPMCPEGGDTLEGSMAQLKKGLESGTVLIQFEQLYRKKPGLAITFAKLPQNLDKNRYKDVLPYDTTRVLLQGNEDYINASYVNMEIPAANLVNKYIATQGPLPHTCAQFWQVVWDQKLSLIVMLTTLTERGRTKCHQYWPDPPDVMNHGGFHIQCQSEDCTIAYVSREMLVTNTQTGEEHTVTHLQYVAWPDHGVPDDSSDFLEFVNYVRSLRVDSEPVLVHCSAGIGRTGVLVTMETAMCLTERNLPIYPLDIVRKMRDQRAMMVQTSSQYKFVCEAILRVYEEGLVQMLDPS
# T2 sequence (Q12923 whole entry): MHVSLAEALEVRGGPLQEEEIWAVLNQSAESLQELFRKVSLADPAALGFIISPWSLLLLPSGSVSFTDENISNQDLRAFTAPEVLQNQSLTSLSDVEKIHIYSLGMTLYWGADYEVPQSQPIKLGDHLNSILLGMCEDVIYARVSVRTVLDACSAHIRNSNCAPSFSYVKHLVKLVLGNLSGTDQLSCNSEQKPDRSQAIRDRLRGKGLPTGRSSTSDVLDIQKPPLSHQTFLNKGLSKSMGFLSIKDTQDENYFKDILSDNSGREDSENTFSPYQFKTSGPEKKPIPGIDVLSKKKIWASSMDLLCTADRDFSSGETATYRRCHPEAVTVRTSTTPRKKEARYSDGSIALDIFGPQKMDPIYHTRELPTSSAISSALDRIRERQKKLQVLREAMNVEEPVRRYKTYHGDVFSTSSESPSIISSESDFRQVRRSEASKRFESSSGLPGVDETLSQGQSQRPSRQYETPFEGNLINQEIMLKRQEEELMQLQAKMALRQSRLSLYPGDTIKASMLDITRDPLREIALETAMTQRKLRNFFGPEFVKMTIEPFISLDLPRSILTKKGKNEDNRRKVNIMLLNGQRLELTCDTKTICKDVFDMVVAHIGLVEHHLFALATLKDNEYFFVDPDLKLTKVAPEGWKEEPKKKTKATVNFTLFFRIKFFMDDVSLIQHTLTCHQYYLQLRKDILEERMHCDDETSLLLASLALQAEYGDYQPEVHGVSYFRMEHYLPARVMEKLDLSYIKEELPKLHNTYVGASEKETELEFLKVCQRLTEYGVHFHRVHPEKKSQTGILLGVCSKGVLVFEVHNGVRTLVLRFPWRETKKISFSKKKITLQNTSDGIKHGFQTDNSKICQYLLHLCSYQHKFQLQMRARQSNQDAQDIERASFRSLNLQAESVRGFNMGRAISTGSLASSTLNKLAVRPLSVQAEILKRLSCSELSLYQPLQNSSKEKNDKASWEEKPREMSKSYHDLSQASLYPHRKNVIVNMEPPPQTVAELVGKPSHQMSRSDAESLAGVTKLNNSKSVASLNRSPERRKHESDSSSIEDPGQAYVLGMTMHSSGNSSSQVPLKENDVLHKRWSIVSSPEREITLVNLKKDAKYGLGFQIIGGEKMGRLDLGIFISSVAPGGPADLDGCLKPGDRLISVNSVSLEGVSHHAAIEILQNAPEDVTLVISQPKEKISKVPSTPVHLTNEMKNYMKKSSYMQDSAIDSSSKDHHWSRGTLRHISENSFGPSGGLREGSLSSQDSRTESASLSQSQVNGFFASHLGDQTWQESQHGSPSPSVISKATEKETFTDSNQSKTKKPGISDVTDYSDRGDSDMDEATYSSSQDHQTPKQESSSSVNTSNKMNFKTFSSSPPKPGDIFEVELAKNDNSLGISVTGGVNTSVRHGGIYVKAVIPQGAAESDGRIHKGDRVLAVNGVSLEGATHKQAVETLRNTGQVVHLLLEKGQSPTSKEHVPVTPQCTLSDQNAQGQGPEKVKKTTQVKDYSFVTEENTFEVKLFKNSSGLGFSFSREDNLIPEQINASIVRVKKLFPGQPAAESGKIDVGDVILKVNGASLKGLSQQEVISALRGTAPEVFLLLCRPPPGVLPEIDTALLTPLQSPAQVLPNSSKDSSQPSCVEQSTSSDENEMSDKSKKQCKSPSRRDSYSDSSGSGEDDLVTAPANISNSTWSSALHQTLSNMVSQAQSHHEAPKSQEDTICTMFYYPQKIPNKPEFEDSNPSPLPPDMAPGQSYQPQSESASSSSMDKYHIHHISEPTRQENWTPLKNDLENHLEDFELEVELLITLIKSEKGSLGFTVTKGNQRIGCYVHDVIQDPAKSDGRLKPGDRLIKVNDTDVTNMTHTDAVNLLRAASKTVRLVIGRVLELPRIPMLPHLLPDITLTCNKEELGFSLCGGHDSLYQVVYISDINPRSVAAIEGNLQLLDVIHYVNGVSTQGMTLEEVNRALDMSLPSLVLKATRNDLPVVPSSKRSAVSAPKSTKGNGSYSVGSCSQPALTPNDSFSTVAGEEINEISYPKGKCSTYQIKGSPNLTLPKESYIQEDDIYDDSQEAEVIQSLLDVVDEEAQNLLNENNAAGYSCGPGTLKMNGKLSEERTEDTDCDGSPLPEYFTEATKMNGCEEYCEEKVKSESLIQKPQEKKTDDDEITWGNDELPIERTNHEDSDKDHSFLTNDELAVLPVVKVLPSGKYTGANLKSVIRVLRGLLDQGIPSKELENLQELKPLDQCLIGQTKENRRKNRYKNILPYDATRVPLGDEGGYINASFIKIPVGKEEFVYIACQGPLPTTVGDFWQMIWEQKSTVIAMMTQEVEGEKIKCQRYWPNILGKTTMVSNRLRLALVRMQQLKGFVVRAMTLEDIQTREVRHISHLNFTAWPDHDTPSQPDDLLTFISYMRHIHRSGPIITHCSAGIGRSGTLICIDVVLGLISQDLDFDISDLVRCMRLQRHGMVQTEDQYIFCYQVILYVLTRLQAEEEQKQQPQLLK
compound,measurement,setting,value
C[C@@H]1CC[C@@]2(OC1)O[C@H]1C[C@H]3[C@@H]4CC=C5C[C@@H](O[C@@H]6O[C@H](CO)[C@@H](O[C@@H]7O[C@@H](CO)[C@H](O)[C@H]7O)[C@H](O)[C@H]6O[C@@H]6O[C@@H](C)[C@H](O)[C@@H](O)[C@H]6O)CC[C@]5(C)[C@H]4CC[C@]3(C)[C@H]1[C@@H]2C [polyphyllin D],inhibition at 20 µM,PTPN7 (HePTP),9.2%
same,inhibition at 20 µM,PTPN13 (PTP-BAS),0%
same,inhibition at 20 µM,PTPN3 (PTPH1),0%
